Results taken from ChEMBL document CHEMBL1201862, “PubChem BioAssay data set” (2004).
Activity calls are given as the source filed them. Rule as the data show it, for most assays here: actives have a measured EC50 and inactives only a lower limit.

How the values were obtained:
Cytochrome P450 3A4 = Cytochrome P450 3A4 (Homo sapiens, UniProt P08684);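 also: CYP3A4 tested as one member of a cytochrome P450 panel screen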
[1] = NIH3T3 cell viability loss – ATP luminescence, mouse fibroblasts, counter-screen, dose response (AID 2010); type: functional, cell-based;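 also: cells exposed to compound for about 90 hours before reading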
[2] = Trypanosoma cruzi growth suppression in host cells – NIH3T3 host cells, beta-gal luminescence, confirmation (AID 2044); type: functional, cell-based;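 also: intracellular parasites grown in NIH/3T3 mouse fibroblasts as host cells; luminescent beta-galactosidase reporter signal from transgenic T. cruzi replicating inside host cells; inhibitors lower the luminescence signal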
Cytochrome P450 2C9 = Cytochrome P450 2C9 (Homo sapiens, UniProt P11712)
Sequence of Cytochrome P450 2C9 (P11712 whole entry): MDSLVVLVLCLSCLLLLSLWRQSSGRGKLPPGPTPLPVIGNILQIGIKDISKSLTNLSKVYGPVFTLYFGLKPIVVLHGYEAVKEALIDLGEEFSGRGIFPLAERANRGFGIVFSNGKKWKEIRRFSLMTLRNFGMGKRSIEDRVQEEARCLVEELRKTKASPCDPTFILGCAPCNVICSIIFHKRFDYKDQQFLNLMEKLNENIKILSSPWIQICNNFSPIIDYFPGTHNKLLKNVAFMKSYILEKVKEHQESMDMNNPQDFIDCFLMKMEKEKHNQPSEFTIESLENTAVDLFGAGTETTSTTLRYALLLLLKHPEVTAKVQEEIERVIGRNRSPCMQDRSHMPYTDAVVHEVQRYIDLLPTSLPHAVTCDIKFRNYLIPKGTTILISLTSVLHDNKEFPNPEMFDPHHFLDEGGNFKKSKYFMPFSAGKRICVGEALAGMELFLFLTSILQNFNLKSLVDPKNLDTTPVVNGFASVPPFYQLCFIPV

[3] = tested on: Streptococcus sp. 'group A'; experiment: Streptococcus pyogenes SK(-)GAS viability under kanamycin – luminescence, BacTiterGlo, confirmation, counter-screen for streptokinase expression inhibitor project, dose response (AID 1900); type: functional, organism-based
Streptococcus = experiment: GAS UMAA2166 growth inhibition – luminescence, BacTiterGlo, counter-screen for streptokinase expression inhibitor project, dose response (AID 1915); type: functional, organism-based; conditions: read-out: EC50;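 also: potency for reduction of bacterial viability or growth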

Sequence of Cytochrome P450 3A4 (P08684 whole entry): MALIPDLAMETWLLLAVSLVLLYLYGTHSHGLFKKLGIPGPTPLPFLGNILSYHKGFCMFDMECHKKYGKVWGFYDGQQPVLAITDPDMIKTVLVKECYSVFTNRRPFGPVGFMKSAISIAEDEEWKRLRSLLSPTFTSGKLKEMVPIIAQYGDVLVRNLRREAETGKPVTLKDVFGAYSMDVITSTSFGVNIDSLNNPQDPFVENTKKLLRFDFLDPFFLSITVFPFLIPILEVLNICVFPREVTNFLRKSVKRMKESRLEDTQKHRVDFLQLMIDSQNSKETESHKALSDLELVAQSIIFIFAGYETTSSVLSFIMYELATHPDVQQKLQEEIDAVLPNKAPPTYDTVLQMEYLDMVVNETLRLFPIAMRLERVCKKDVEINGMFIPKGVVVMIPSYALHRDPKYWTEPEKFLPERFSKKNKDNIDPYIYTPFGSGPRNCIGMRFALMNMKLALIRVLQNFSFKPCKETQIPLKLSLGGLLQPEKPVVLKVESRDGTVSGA

| AC50 (Cytochrome P450 3A4) | AC50 (Cytochrome P450 2C9) | Compound | EC50 [1] | EC50 [2] | other results |
| --- | --- | --- | --- | --- | --- |
| 35.5 µM (inconclusive) |  | CC(=O)Nc1ccc(Nc2ncnc3c2cnn3-c2ccccc2)cc1 |  |  |  |
| 7.08 µM (inconclusive) |  | O=C1CN(c2nc(-c3ccccc3)c3cc(Br)ccc3n2)c2ccccc2N1 |  |  |  |
|  |  | CC(=O)Nc1ccc(S(=O)(=O)c2ccc([N+](=O)[O-])cc2)cc1 | > 60 µM (not active) | 0.661 µM (active) |  |
|  |  | O=C(NCC(c1ccco1)N1CCCC1)c1ccccc1Sc1ccc(C(F)(F)F)cc1[N+](=O)[O-] (stereo unspecified) | > 60 µM (not active) | 1.64 µM (active) |  |
|  |  | O=[N+]([O-])c1ccc(CNCCc2ccccc2)cc1 | > 60 µM (not active) | 0.528 µM (active) |  |
| 12.6 µM (inconclusive) |  | O=c1c2c(-c3ccc(Cl)cc3)csc2nc2n1CCC2 |  |  |  |
| 10 µM (inconclusive) |  | CCCC/C=C/C(NC(=O)c1ccc(C(F)(F)F)cc1)c1ccccc1 (stereo unspecified) |  |  |  |
| 4.47 µM (inconclusive) |  | O=C(Nc1ccccc1C(=O)NCC1CCCO1)c1ccc(Cl)cc1Cl (stereo unspecified) |  |  |  |
|  | 5.01 µM (inconclusive) | Cc1ccc(S(=O)(=O)CCCS(=O)(=O)c2ccc(C)cc2)cc1 |  |  |  |
|  |  | O=C(Nc1cccc2ccccc12)c1ccc([N+](=O)[O-])s1 | > 60 µM (not active) | 0.407 µM (active) |  |
|  | 0.282 µM (inconclusive) | NC(S)=Nc1cc2ccccc2c2ccccc12 |  |  |  |
|  | 6.31 µM (inconclusive) | COc1ccc(-n2nc3cc(C)c(NC(=S)NC(=O)c4ccccc4C)cc3n2)cc1 |  |  |  |
| 15.8 µM (inconclusive) |  | COc1ccc(NC(=O)N2CC3(CCN(S(=O)(=O)c4ccccc4)CC3)C2)cc1 |  |  |  |
|  | 0.398 µM (inconclusive) | c1cncc(CNc2nc(-c3ccc4c(c3)OCO4)nc3ccccc23)c1 |  |  |  |
| 7.94 µM (inconclusive) |  | CC(=O)[C@@H]1CC[C@@H]2[C@@H]3C[C@H](C)C4=CC(=O)CC[C@@]4(C)[C@H]3[C@H](O)C[C@]21C |  |  |  |
|  |  | Fc1ccccc1Cc1noc(CN2CCN(Cc3ccc4c(c3)OCO4)CC2)n1 | > 60 µM (not active) | 1.03 µM (active) |  |
|  | 0.891 µM (inconclusive) | Cc1ccc(NC(=O)CCC(=O)c2ccc(F)cc2)cc1Cl |  |  |  |
|  |  | Fc1ccc(N2CCN(c3ncnc4c3nnn4Cc3ccccc3Cl)CC2)cc1 | > 60 µM (inconclusive) | 2.46 µM (active) |  |
| 25.1 µM (inconclusive) |  | O=C(Nc1ccccc1)N1CCCC2(CCN(C(=O)c3cnccn3)CC2)C1 |  |  |  |
|  |  | Cc1ccc(CNC(=O)CCC2CCCN(Cc3cccc4ncccc34)C2)o1 (stereo unspecified) | > 60 µM (inconclusive) | 0.193 µM (active) |  |
|  | 0.794 µM (inconclusive) | COc1ccc(Cc2nnc(NC(=O)c3cccc([N+](=O)[O-])c3C)s2)cc1 |  |  |  |
|  | 17.8 µM (inconclusive) | CCCCNC(=O)C1C2C=CC3(CN(Cc4ccccc4Cl)C(=O)C13)O2 (stereo unspecified) |  |  |  |
| 3.98 µM (inconclusive) |  | Cc1cc(N(CN2CCCC2=O)C(=O)c2ccc(F)cc2)no1 |  |  |  |
|  |  | C/C(=N\NC(=O)c1cc2ccccc2cc1O)c1cc2ccccc2o1 |  |  | EC50 [3]: 1.77 µM (active); EC50 (Streptococcus): 4.11 µM (active) |
|  |  | Cc1ccc(-c2nc(C(=O)NCCCN3CCOCC3)cc3c2[nH]c2ccccc23)cc1 | > 30 µM (not active) | 1.36 µM (active) |  |
|  | 39.8 µM (inconclusive) | Cc1cccc(C(=O)N/N=C/c2ccc(OCC(=O)N3CCCCC3)cc2)c1 |  |  |  |
|  |  | C/N=c1\scc(-c2ccc(OC)cc2)n1/N=C(\C)c1cccnc1 | > 30 µM (not active) | 1.79 µM (active) |  |
|  |  | C/C(Cn1cnc([N+](=O)[O-])n1)=N/NC(=O)COc1c(Cl)cc(Cl)cc1Cl | > 60 µM (not active) | 0.143 µM (active) |  |
|  |  | C/C(=C\C(=O)c1ccccc1)Nc1ccc(N2CCOCC2)cc1 | > 60 µM (not active) | 6.78 µM (active) |  |
|  |  | Brc1ccc(OCCn2ccnc2)cc1 | > 60 µM (not active) | 3.15 µM (active) |  |

| Compound | AC50 (Cytochrome P450 3A4) | AC50 (Cytochrome P450 2C9) | EC50 [1] | EC50 [2] | other results |
| --- | --- | --- | --- | --- | --- |
| CCCCN1CSC(=S)N(Cc2ccccc2)C1 | 3.16 µM (inconclusive) | 7.94 µM (inconclusive) |  |  |  |
| O=C(O)/C(=C\c1ccncc1)c1cccc2ccccc12 |  | 3.16 µM (inconclusive) |  |  |  |
